The target of one assay is human SGLT1 (Homo sapiens (Human), UniProt P13866). Nature of the assay: SGLT1 inhibitory activity: 14C-AMG uptake into CHO-K1 cell line stably expressing human SGLT1. The settings on record: 14C-AMG uptake, CHO-K1 cells stably expressing human SGLT1. Format: cell-based. The gist of the method: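 CHO-K1 cells stably expressing human SGLT1 were pre-incubated 20 min in Na(−) buffer (pH 7.4). Test compound in Na(+) buffer with BSA was added with ¹⁴C-AMG (8 kBq) plus unlabelled AMG (2 mM in the added solution) for 1 h at 37 °C.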
Chain of human SGLT1 (P13866 whole entry): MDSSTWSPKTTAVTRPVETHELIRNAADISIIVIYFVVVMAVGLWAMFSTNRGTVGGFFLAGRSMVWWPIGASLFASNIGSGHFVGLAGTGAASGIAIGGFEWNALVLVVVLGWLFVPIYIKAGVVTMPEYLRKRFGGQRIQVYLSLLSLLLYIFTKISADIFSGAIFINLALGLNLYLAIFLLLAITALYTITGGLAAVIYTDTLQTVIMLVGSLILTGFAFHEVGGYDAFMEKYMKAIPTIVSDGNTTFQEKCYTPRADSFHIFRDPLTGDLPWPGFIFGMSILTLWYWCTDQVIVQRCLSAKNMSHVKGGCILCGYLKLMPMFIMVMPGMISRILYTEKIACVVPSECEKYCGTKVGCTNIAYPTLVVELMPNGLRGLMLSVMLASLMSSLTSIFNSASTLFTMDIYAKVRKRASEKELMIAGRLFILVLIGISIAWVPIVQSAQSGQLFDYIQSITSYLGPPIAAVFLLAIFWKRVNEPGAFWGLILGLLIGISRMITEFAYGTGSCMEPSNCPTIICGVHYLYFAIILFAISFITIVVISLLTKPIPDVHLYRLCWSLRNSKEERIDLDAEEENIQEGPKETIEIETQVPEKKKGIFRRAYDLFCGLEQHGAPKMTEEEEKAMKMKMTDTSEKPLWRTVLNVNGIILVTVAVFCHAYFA
What is called IC50 is the concentration that gives 50% inhibition. Lower therefore signals inhibition by little substance. `C[C@@H](OCc1cc(Cl)cc(-c2cc(NC(=O)[C@@H]3CNC(=O)C3)nn2-c2ccc(F)cc2)c1)C(F)(F)F` [Example 242, (S)-5-oxopyrrolidine-3-carboxylic acid{5-[3-chloro-5-((R)-2,2,2-trifluoro-1-methylethoxymethyl)phenyl]-1-(4-fluorophenyl)-1H-pyrazol-3-yl}amide] returned an IC50 of 9 nM. For `CC(C)(OCc1cc(Cl)cc(-c2cc(NC(=O)[C@@H]3CNC(=O)C3)nn2-c2ccccc2)c1)C(F)(F)F` [Example 243, (S)-5-oxopyrrolidine-3-carboxylic acid[5-[3-chloro-5-(2,2,2-trifluoro-1,1-dimethylethoxymethyl)phenyl]-1-phenyl-1H-pyrazol-3-yl]amide], the IC50 was 14 nM. The molecule `C[C@@H](OCc1cccc(-c2cc(NC(=O)[C@@H]3CNC(=O)C3)nn2-c2ccc(Cl)cc2)c1)C(F)(F)F` [Example 244, (S)-5-oxopyrrolidine-3-carboxylic acid{1-(4-chlorophenyl)-5-[3-((R)-2,2,2-trifluoro-1-methylethoxymethyl)phenyl]-1H-pyrazol-3-yl}amide] had an IC50 of 8 nM. On to `CCCCc1cccc(-c2cc(NC(=O)[C@H]3CNC(=O)N3)nn2-c2ccccc2)c1` [Example 245, (R)-2-Oxoimidazolidine-4-carboxylic acid[5-(3-butylphenyl)-1-phenyl-1H-pyrazol-3-yl]amide], for which inhibition was half-maximal at 19 nM (IC50). Turning to `O=C1C[C@H](C(=O)Nc2cc(-c3cccc(COC(C(F)(F)F)C(F)(F)F)c3)n(-c3ccccc3)n2)CN1` [Example 246, (S)-5-oxopyrrolidine-3-carboxylic acid{1-phenyl-5-[3-(2,2,2-trifluoro-1-trifluoromethylethoxymethyl)phenyl]-1H-pyrazol-3-yl}amide], half-maximal inhibition (IC50) was put at 11.5 nM. `O=C1C[C@H](C(=O)Nc2cc(-c3cc(F)cc(COCC(F)(F)F)c3)n(-c3ccc(F)cc3)n2)CN1` [Example 248, (S)-5-oxopyrrolidine-3-carboxylic acid{1-(4-fluorophenyl)-5-[3-fluoro-5-(2,2,2-trifluoroethoxymethyl)phenyl]-1H-pyrazol-3-yl}amide] showed an IC50 of 25 nM. For `CCCc1cccc(-c2cc(NC(=O)C34CNC(=O)C3C4)nn2-c2ccccc2)c1` (stereo not shown) [Example 249, 4-oxo-3-azabicyclo[3.1.0]hexane-1-carboxylic acid[1-phenyl-5-(3-propylphenyl)-1H-pyrazol-3-yl]amide], inhibition was half-maximal at 39 nM (IC50). Regarding `CCCc1cccc(-c2cc(NC(=O)[C@@H]3CNC(=O)O3)nn2-c2ccccc2)c1` [Example 257], the IC50 stood at 76 nM. Molecule `CCCc1cccc(-c2cc(NC(=O)[C@H]3CNC(=O)O3)nn2-c2ccccc2)c1` [Example 258] registered an IC50 of 23 nM. Same read-out and setting: in the case of `O=C1C[C@H](C(=O)Nc2cc(-c3cccc(OCC(F)(F)F)c3)n(-c3ccccc3)n2)CN1` [Example 260] it was 23 nM; in that of `CCCc1cccc(-c2cc(NC(=O)[C@@H]3CNC(=O)C3)nn2-c2ccccc2C)c1` [Example 261], 3.77 nM; in that of `CCCc1cccc(-c2cc(NC(=O)[C@@H]3CNC(=O)C3)nn2-c2cccc(Cl)c2)c1` [Example 262], 6 nM. Molecule `O=C1NC[C@@H](C(=O)Nc2cc(-c3cccc(OC(F)(F)F)c3)n(-c3ccccc3)n2)O1` [Example 263] returned an IC50 of 370 nM. For the molecule `O=C1NC[C@H](C(=O)Nc2cc(-c3cccc(OC(F)(F)F)c3)n(-c3ccccc3)n2)O1` [Example 264], the IC50 came out at 39 nM.

Turning to `O=C1NC[C@@H](C(=O)Nc2cc(-c3cccc(OC(F)(F)F)c3)n(-c3ccccc3)n2)N1` [Example 266], the IC50 was 45 nM. On to `O=C1NC[C@H](C(=O)Nc2cc(-c3cccc(OC(F)(F)F)c3)n(-c3ccccc3)n2)N1` [Example 267], for which the half-inhibitory concentration (IC50) came out at 81 nM.

`CCCCc1cccc(-c2cc(NC(=O)[C@@H]3CNC(=O)N3)nn2-c2ccccc2)c1` [Example 268] gave an IC50 of 8.5 nM. In turn, `COC(C)(C)c1cccc(-c2cc(NC(=O)[C@H]3CNC(=O)N3)nn2-c2ccccc2)c1` [Example 269] came in with an IC50 of 92 nM.

Molecule `COC(C)(C)c1cccc(-c2cc(NC(=O)[C@@H]3CNC(=O)N3)nn2-c2ccccc2)c1` [Example 270] displayed an IC50 of 45 nM. `COC(C)(C)c1cccc(-c2cc(NC(=O)C3CNC(=O)NC3)nn2-c2ccccc2)c1` [Example 271]: the midpoint of inhibition, the IC50, lay at 290 nM. For `O=C1C[C@H](C(=O)Nc2cc(-c3cccc(OCCC(F)(F)F)c3)n(-c3ccccc3)n2)CN1` [Example 272], the IC50 came to 37 nM. The same measure, in the same setting: in the case of `O=C1C[C@H](C(=O)Nc2cc(-c3cccc(OCCCC(F)(F)F)c3)n(-c3ccccc3)n2)CN1` [Example 273] it was 27 nM.

Consider `O=C1C[C@H](C(=O)Nc2cc(-c3cccc(COCC(F)(F)F)c3)n(-c3ccccc3)n2)CN1` [Example 279], for which the IC50 stood at 17.5 nM. As to `O=C1C[C@@H](C(=O)Nc2cc(-c3cccc(COCC(F)(F)F)c3)n(-c3ccccc3)n2)CN1` [Example 280], it took 9.8 nM to reach half-maximal inhibition (IC50). Take `O=C1C[C@H](C(=O)Nc2cc(-c3cccc(COCCC(F)(F)F)c3)n(-c3ccccc3)n2)CN1` [Example 281]: 21.5 nM corresponded to half-maximal inhibition (IC50). `O=C1C[C@@H](C(=O)Nc2cc(-c3cccc(COCCC(F)(F)F)c3)n(-c3ccccc3)n2)CN1` [Example 282]: the IC50 is 9.9 nM. The molecule `CCOCc1cccc(-c2cc(NC(=O)[C@@H]3CNC(=O)C3)nn2-c2ccccc2)c1` [Example 283] returned an IC50 of 110 nM.

In turn, `CCCOc1cccc(-c2cc(NC(=O)[C@@H]3CNC(=O)C3)nn2-c2ccccc2)c1` [Example 284] displayed a concentration for half-maximal inhibition (IC50) of 75 nM. Molecule `CCOCc1cccc(-c2cc(NC(=O)[C@H]3CNC(=O)C3)nn2-c2ccccc2)c1` [Example 285] yielded an IC50 of 21 nM. `CC(C)COc1cccc(-c2cc(NC(=O)[C@@H]3CNC(=O)C3)nn2-c2ccccc2)c1` [Example 286] came in with an IC50 of 30 nM. `CC(C)COc1cccc(-c2cc(NC(=O)[C@H]3CNC(=O)C3)nn2-c2ccccc2)c1` [Example 287] registered an IC50 of 12 nM.

`CC(C)(C)COc1cccc(-c2cc(NC(=O)[C@@H]3CNC(=O)C3)nn2-c2ccccc2)c1` [Example 288] had an IC50 of 11.5 nM. `CC(C)(C)COc1cccc(-c2cc(NC(=O)[C@H]3CNC(=O)C3)nn2-c2ccccc2)c1` [Example 289] came in with an IC50 of 4.5 nM.

With `CC(C)(C)Oc1cccc(-c2cc(NC(=O)[C@@H]3CNC(=O)C3)nn2-c2ccccc2)c1` [Example 290], inhibition was half-maximal at 5.5 nM (IC50).

Molecule `CCC(C)(C)Oc1cccc(-c2cc(NC(=O)[C@@H]3CNC(=O)C3)nn2-c2ccccc2)c1` [Example 291] showed an IC50 of 5.1 nM. `CC(C)(C)CCOc1cccc(-c2cc(NC(=O)[C@@H]3CNC(=O)C3)nn2-c2ccccc2)c1` [Example 294]: the IC50 was found to be 24.5 nM. On to `CCCc1cccc(-c2cc(NC(=O)[C@@H]3CNC(=O)N3CC)nn2-c2ccccc2)c1` [Example 295], for which the midpoint of inhibition, the IC50, lay at 29 nM. In the case of `CCCc1cccc(-c2cc(NC(=O)[C@@H]3CNC(=O)N3CCC)nn2-c2ccccc2)c1` [Example 297], inhibition was half-maximal at 71 nM (IC50). With `CC(C)OCc1cccc(-c2cc(NC(=O)[C@@H]3CNC(=O)C3)nn2-c2ccccc2)c1` [Example 299], inhibition was half-maximal at 33 nM (IC50). On the same count and under the same terms, in the case of `CCCOCc1cccc(-c2cc(NC(=O)[C@@H]3CNC(=O)C3)nn2-c2ccccc2)c1` [Example 300] it was 38 nM; in that of `CC(C)Oc1cccc(-c2cc(NC(=O)[C@@H]3CNC(=O)C3)nn2-c2ccccc2)c1` [Example 301], 63 nM; in that of `CCCc1cccc(-c2cc(NC(=O)C3CCS(=O)(=O)CC3)nn2-c2ccccc2)c1` [Example 302], 1.5 nM. Molecule `CCCc1cccc(-c2cc(NC(=O)[C@H]3CNC(=O)N3CC)nn2-c2ccccc2)c1` [Example 303] displayed a 50% inhibitory concentration (IC50) of 4.7 nM. On to `CCCc1cccc(-c2cc(NC(=O)[C@H]3CNC(=O)N3CCC)nn2-c2ccccc2)c1` [Example 304], for which the IC50 turned out to be 10 nM.

On to `O=C1NC[C@H](C(=O)Nc2cc(-c3cccc(COCC(F)(F)F)c3)n(-c3ccccc3)n2)O1` [Example 305], for which the IC50 came to 29 nM. With `CCCCc1cccc(-c2cc(NC(=O)[C@H]3CNC(=O)O3)nn2-c2ccccc2)c1` [Example 306], the IC50 came out at 13 nM.

The same assay, now with this note: CHO-K1, at 0.03 uM.
One may read the inhibition as the percentage by which the read-out fell short of the control. Low readings indicate a weak effect, high ones a strong effect. `O=C1NCC(C(=O)Nc2cc(-c3cccc(OC(F)(F)F)c3)n(-c3ccccc3)n2)CN1` [Example 252] yielded an inhibition at 0.03 µM of 7%.

The assay is the same for the next values; noted with them: CHO-K1, at 0.1 uM.
Consider `CCCc1cccc(-c2cc(NC(=O)C3CNC(=O)NC3)nn2-c2ccccc2)c1` [Example 251], for which the inhibition at 0.1 µM was 41%. Consider `COCc1cccc(-c2cc(NC(=O)[C@@H]3CNC(=O)C3)nn2-c2ccccc2)c1` [Example 265], for which the inhibition at 0.1 µM came to 17%. As for `CCCc1cccc(-c2cc(NC(=O)C3CNC(=O)CO3)nn2-c2ccccc2)c1` (stereo not shown) [Example 275], the inhibition at 0.1 µM came to 48%. Regarding `O=C1COC(C(=O)Nc2cc(-c3cccc(OC(F)(F)F)c3)n(-c3ccccc3)n2)CN1` (stereo not shown) [Example 276], at 0.1 µM the inhibition was 30%. In turn, `CCN1C(=O)NC[C@H]1C(=O)Nc1cc(-c2cccc(OC(F)(F)F)c2)n(-c2ccccc2)n1` [Example 296] returned an inhibition at 0.1 µM of 48%. On to `CCCN1C(=O)NC[C@H]1C(=O)Nc1cc(-c2cccc(OC(F)(F)F)c2)n(-c2ccccc2)n1` [Example 298], for which the inhibition at 0.1 µM stood at 38%.

In turn, `CCC1C(=O)NCC1C(=O)Nc1cc(-c2cccc(OC(F)(F)F)c2)n(-c2ccccc2)n1` (stereo not shown) [Example 310] had an inhibition at 0.1 µM of 42%.

Staying with this assay, now noted: at 0.1 uM.
Take `CCCc1cccc(-c2cc(NC(=O)C3CNC(=O)CO3)nn2-c2ccccc2)c1` (stereo not shown) [Example 277]: the “human SGLT1 % Inhibition” value is on record as 48%. For `O=C1COC(C(=O)Nc2cc(-c3cccc(OC(F)(F)F)c3)n(-c3ccccc3)n2)CN1` (stereo not shown) [Example 278], the “human SGLT1 % Inhibition” value stood at 34%.

Staying with this assay, now noted: at 0.3 uM.
In the case of `CCCc1cccc(-c2cc(NC(=O)C3CCCC(=O)NC3)nn2-c2ccccc2)c1` (stereo not shown) [Example 255], the “human SGLT1 % Inhibition” value is listed as 7%.

With `CCCc1cccc(-c2cc(NC(=O)C3CCCC(=O)NC3)nn2-c2ccccc2)c1` (stereo not shown) [Example 256], the “human SGLT1 % Inhibition” value stood at 3%.
